Reference: patent US7183440B2, “Pharmaceutically useful compounds” (priority 2005, dated 2007)
Like-named read-outs stand apart in the source and are kept apart here.

Columns and labels:
HSF = HSF activation, luciferase reporter controlled by the human hsp70 promoter in HeLa cell clone 13B; format: cell-based; conditions: Homo sapiens; concentration at which the compound doubled HSF activity; HeLa clone 13B, 8 h treatment; read-out: HSF AC200/μM
Procedure: (§1) HeLa cell clone 13B, stably transfected with a luciferase reporter plasmid controlled by the human hsp70 promoter, and HeLa κB-transformed cells, stably transfected with a luciferase reporter plasmid controlled by a synthetic NF-κB-STM construct, were maintained in DMEM medium supplemented with 10% FBS, L-glutamine (2 mM) and G418 (250 μg/ml) at 37° C. in a 5% CO2 humidified atmosphere.
(§2) Cells were seeded at a density of 4×10^4 cells/well in 96-well plates. After 18–20 h, the medium was removed and cells were treated for 8 h with the test compounds (100 μl) at the appropriate dilutions in serum-free medium. For the NF-κB-dependent reporter gene assay, cells were stimulated with TPA (25 ng/ml) 2 h after exposure to the compounds.
(§3) After incubation, the medium was removed and cells were lysed in 10 μl of lysis buffer. The luciferase activity was determined by adding 100 μl of substrate and measuring the release of light using a Victor 1420 microplate reader (Wallac, Finland).
(§4) The AC200/μM for HSF is the concentration at which the tested compound doubled the HSF activity in this assay. The IC50/μM for NF-κB is the concentration at which the tested compound halved the NF-κB activity in this assay. […] The LC50/μM is the concentration at which the tested compound killed half the cells in each assay. […] (n.d. means not done)

Sendai virus = experiment: Replication of Sendai virus in 37RC cells, virus yield by haemagglutinin titration; format: cell-based; conditions: Respirovirus muris; 50% inhibitory dose/concentration at 24 hours, Sendai virus in 37RC cells; read-out: ID50/μM
Procedure: Monkey kidney 37RC cells were grown at 37° C. in RPMI medium supplemented with 5% foetal bovine serum (FBS), L-glutarine (2 mM) and antibiotics. Sendai virus was grown in the allantoic cavity of 10-day-old embryonated eggs. Viral titre was expressed in haemagglutinating units (HAU) per ml; haemagglutinin titration was done according to standard procedures, as described in C. Amici et al. (J. Virol. 68: 6890–6899, 1994). […] Confluent 37RC monolayers were infected with Sendai Virus (5 HAU/ml) for 1 h at 37° C. After 1 hour incubation, viral inoculum was removed and cells were treated with the test compounds at different concentrations. Virus yields were determined 24 h post infection by haemagglutinin titration. Mock-infected cells were treated identically and processed for cytotoxicity assay (Neutral Red assay) at the same time (see below). The results were expressed as HAU/ml (each point represents the mean of duplicate samples).

HeLa cells = experiment: in vitro; format: cell-based; conditions: human, 8 h
Procedure: HeLa cells were plated in 96-well microtiter plates in 100 μl culture medium (4×10^4/well). After 20 hours, the cells were exposed to the test compounds at different dilutions and incubated for the next 8 h at 37° C. in a 5% CO2 humidified atmosphere. After 6 h incubation, the Alamar Blue was added in an amount equal to 10% of the culture volume (10 μl). Two hours after the addition of the Alamar Blue, the fluorescence was measured using a Victor 1420 microplate reader.

Monkey kidney 37RC cells = format: cell-based; conditions: concentration 100% toxic to uninfected 37RC cells, visually by microscopy
in vitro [1] = format: cell-based; conditions: monkey, 50% lethal dose/concentration, neutral red assay, 37RC cells, read-out: LC50/μM
Procedure: Cell viability was determined using the Neutral Red assay.

NF-κB = experiment: NF-κB-dependent luciferase reporter gene assay in HeLa κB-transformed cells stimulated with TPA; format: cell-based, human; conditions: Homo sapiens; concentration that halved NF-κB activity; HeLa reporter cells, TPA 25 ng/ml, 8 h treatment
Procedure: as §1, §2, §3
The fragment Kpn I-BamH I from the pGL3 basic vector containing the luciferase gene (PROMEGA) was inserted in the pcDNA3 vector (INVITROGEN) digested with Bgl II-KpnI. (This digestion removes the CMV-promoter from pcDNA3.) The resulting new vector was digested with Kpn I-Hind III and a promoter containing a ‘5×NF-κB binding sites-TATA box’ sequence was inserted upstream of the luciferase gene. This vector has been named STM.
To obtain stable HeLa cell lines expressing the luciferase gene under the control of NF-κB, HeLa cells were transfected (using lipofectamine plus GIBCO) with the STM-Pvu I linearized vector, and selected for 20 days with G418 (800 μg/ml). After selection, the resistant HeLa cell pool was controlled (in quadruplicate samples) for luciferase activity after stimulation with TNFα, IL-1 and TPA.
as §4

in vitro [2] = experiment: in vitro
Procedure: This assay was carried out on HeLa cells using a technique analogous to that described below in Example 36(b) for Monkey Kidney 37RC cells.
as §4
Cell viability was determined using the Neutral Red assay. 37RC cells were seeded at density of 6×10^4 cells/well in 24-well plates and incubated for 24 h. Confluent 37RC monolayers were treated with the test compounds at different dilutions for 24 h at 37° C. After incubation, the medium was removed and the cells were incubated with RPMI medium containing 40 μg/ml Neutral Red dye (500 μl/well). After 2 h at 37° C., the monolayers were washed with phosphate-buffered saline (PBS) and then with a solution containing 1% CaCl2 and 0.5% formaldehyde. After washing, a solution containing 1% acetic acid/50% ethanol was added to the monolayers (250 μl/well). After 10 min at room temperature, the absorbance was determined with a microplate reader (Victor 1420, Wallac) at 540 nm.

| Compound | EC (2-fold HSF activity) (HSF) [µM] | IC50 (Sendai virus) [µM] | CC50 (HeLa cells) [µM] | TD100/μM (Monkey kidney 37RC cells) [µM] | CC50 at 24 h (in vitro [1]) [µM] | IC50 (NF-κB) [µM] | CC50 at 24 h (in vitro [2]; human) [µM] | CC50 at 24 h (in vitro [2]) [µM] |
| --- | --- | --- | --- | --- | --- | --- | --- | --- |
| CC(C)/C=C1/C(=O)C=CC1NC(=O)OC(C)(C)C (stereo not drawn) [CTC-121, (5-iso-Butylidene-4-oxocyclopent-2-enyl)-carbamic acid tert-butyl ester] | 2.8 | 1 | > 800 | 50 | 4 | 4.7 |  |  |
| CCCCC1C=CC(=O)/C1=C/CC(C)C (stereo not drawn) [CTC-122] | 13 | 0.3 | 227 | 50 |  | 12 |  |  |
| CC(C)(C)OC(=O)NC1C=CC(=O)C1 (stereo not drawn) [CTC-132, (4-Oxocyclopent-2-enyl)-carbamic acid tert-butyl ester] | 51 | 20 | > 800 | 100 |  | 52 |  |  |
| CCCCC1C=CC(=O)/C1=C/C(C)C (stereo not drawn) [CTC-145] | 13 | 0.3 | 506 | 10 |  | 38 |  |  |
| CC1C=CC(=O)/C1=C/c1ccccc1 (stereo not drawn) [CTC-150, 4-Methyl-5-[1-phenyl-meth-(E)-ylidene]-cyclopent-2-enone] | 3 | 0.9 | 314 | 50 |  | 7 |  |  |
| CC(C)/C=C1/C(=O)C=CC1C (stereo not drawn) [CTC-154] | 13 |  | > 800 |  |  | 14 |  |  |
| CCCCCC/C=C1/C(=O)C=CC1C (stereo not drawn) [CTC-162] | < 6.2 |  | 234 |  |  | < 6.2 |  |  |
| CCCCC/C=C1/C(=O)C=CC1C (stereo not drawn) [CTC-164] | > 100 |  | > 800 |  |  | 40 |  |  |
| O=C1C=CC(NC(=O)c2ccccc2)C1 (stereo not drawn) [CTC-171, N-(4-Oxocyclopent-2-enyl)-benzamide] | 51 | 20 | > 800 | 100 | 59 | 38 |  |  |
| CCCCC1C=CC(=O)/C1=C/C1CC1 (stereo not drawn) [CTC-177] | 8 |  | 239 |  |  | 14 |  |  |
| CC(C)/C=C1/C(=O)C=C[C@H]1NC(=O)OC(C)(C)C [CTC-195, (2R)-(5-iso-Butylidene-4-oxocyclopent-2-enyl)-carbamic acid tert-butyl ester] | 5 | 0.4 | > 800 | 10 | 4 | 6.6 |  |  |
| CC(C)/C=C1/C(=O)C=C[C@@H]1NC(=O)OC(C)(C)C [CTC-199, (2S)-(5-iso-Butylidene-4-oxocyclopent-2-enyl)-carbamic acid tert-butyl ester] | 1.8 | 1 | > 800 | 50 | 4 | 5 |  |  |
| CC(C)(C)OC(=O)NC1C=CC(=O)/C1=C/c1ccc(Cl)cc1 (stereo not drawn) [CTC-247, [(E)-5-(4-Chloro-benzylidene)-4-oxo-cyclopent-2-enyl]-carbamic acid tert-butyl ester] | 2 | 0.6 | > 800 | 10 | 3.4 | 9 | 72 |  |
| O=C1C=CC(Nc2ccccc2)C1 (stereo not drawn) [CTC-252, 4-Phenylamino-cyclopent-2-one] | 27 |  | > 800 |  |  | 57 |  |  |
| O=C1C=CC(NC(=O)Oc2ccccc2)C1 (stereo not drawn) [CTC-260, (4-Oxocyclopent-2-enyl)-carbamic acid phenyl ester] | 10 |  |  |  |  | 9 |  | 74 |
| CCOC(=O)N(C(=O)OC(C)(C)C)C1C=CC(=O)C1 (stereo not drawn) [CTC-267, N-tert-Butoxycarbonyl-(4-Oxocyclopent-2-enyl)-carbamic acid ethyl ester] | 18 |  |  |  |  | 35 | 233 |  |
| CCOC(=O)NC1C=CC(=O)C1 (stereo not drawn) [CTC-271, (4-Oxocyclopent-2-enyl)-carbamic acid ethyl ester] | 49 |  |  |  |  | 39 | 104 |  |
| Cc1cc(C)c(/C=C2/C(=O)C=C[C@@H]2NC(=O)OC(C)(C)C)c(C)c1 [CTC-285, (1S)-[4-Oxo-(E)-5-(2,4,6-trimethyl-benzylidene)-cyclopent-2-enyl]-carbamic acid tert-butyl ester] | < 6.2 |  |  |  |  | 10 | 25 |  |
| O=C1C=CC(NC(=O)CCl)C1 (stereo not drawn) [CTC-304, 2-Chloro-N-(4-oxo-cyclopent-2-enyl)-acetamide] | < 6.2 |  |  |  |  | < 6.2 | 79 |  |
| COC(=O)[C@H](CSC1CC(=O)/C(=C/C(C)C)C1C)NC(=O)OC(C)(C)C (stereo partly drawn) [CTM-126] | 18 |  | > 800 |  |  | 21 |  |  |
| CC(C)(C)OC(=O)N[C@@H](CS[C@@H]1CC(=O)/C(=C/c2ccccc2)[C@H]1NC(=O)OC(C)(C)C)C(=O)O [CTM-228, (2R)-3-((1R,2R)-(E)-3-Benzylidene-2-tert-butoxycarbonylamino-4-oxocyclopentylsulfanyl)-2-tert-butoxycarbonylaminopropionic acid] | < 6.2 |  |  |  |  | < 6.2 | 25 |  |
